One series addresses human KCNN2 (Homo sapiens, UniProt Q9H2S1). Description: Thallium flux assay, KCNN2 channel block. The class given is cell-based. As for the experimental part:
The effect of tamapin and Lei-Dab7 to block the KCNN2 channel was assessed by the thallium flux (potassium ion surrogate) assay using FLIPR Potassium Assay KIT (Molecular Devices, CA) and a FLIPR TETRA fluorescence imaging plate reader (Molecular Devices, CA). Human embryonic kidney (HEK) 293 cell line stably expressing human KCNN2 (Charles River, MA) were plated on BioCoat Poly-D-Lysine 384-well Black/Clear Plates (BD Biosciences, NJ) at 15 000 to 30 000 cells per well and incubated at 37°C overnight or until cells form near confluent monolayer. A baseline fluorescence was recorded during the pre-incubation period, followed by activation in the stimulus buffer (K^+-free buffer with 5 mM Tl^+). The effects of tamapin and Lei-Dab7 on KCNN2 to inhibit KCNN2 channel were evaluated at 4 different concentrations (n = 4) each, based on fluorescence changes due to the treatments. The signal elicited by the respective positive control agonist [1 μM A23187 (Tocris, UK)] was set to 0% inhibition, and the signal in the presence of the respective positive control antagonists [3 μM UCL1684 (Tocris, UK)] was set to 100% inhibition. The IC50 values were defined as the concentration at which the percent inhibition equals 50.
To determine the dose of Lei-Dab7 to be tested, we compared the effect of Lei-Dab7 and tamapin in blocking human KCNN2 expressed in HEK293 cells using a thallium-based potassium ion channel assay. […] Based on the effective dose of tamapin in mitigating motor skill–learning deficits in PAE mice (15 μg/kg body weight via i.p.)[17] and higher brain uptake of therapeutics by intranasal delivery than by i.p. delivery, we chose a dose of 3.0 μg/kg body weight to test the effect of intranasal administration of Lei-Dab7.
Supplementary Figure 3. Concentration-response relationships of Lei-Dab7 and Tamapin on the Inhibition of KCNN2 channels. (A, B) The concentration-response relationships of Lei-Dab7 (A) and Tamapin (B) on the inhibition of KCNN2 (SK2) channels examined by the thallium flux assay are presented. […]

The nature of series [1]: Physiological monitoring (PhysioSuite) after intranasal administration. In kind it is in vivo, mouse (CD-1). The method, then: Lei-Dab7 or biotinylated Lei-Dab7 (Smartox Biotechnology, France) was dissolved in PBS and administered to mice intranasally at 3.0 μg/kg/day. Vehicle (PBS) only was administered as the control. Briefly, the mouse was held softly on the neck to avoid any movement during drug administration. A 20-μL pipette was used to deliver 3 to 5 μL drug at a time. The tip was placed close enough to the mouse’s nostril at a 45-degree angle, and the drug was slowly ejected into the nostril. The mouse was let to inhale for 3 to 5 seconds and then left in a cage for 5 minutes to fully inhale the drug. This process was repeated until the required amount of drug was administered in a few minutes. The alternate nostril was used to deliver the drug each time to increase the efficiency of administration. Successful delivery by this method was confirmed by detecting biotinylated Lei-Dab7 in the brain, which was collected and immersion-fixed with 4% PFA at 15 minutes after intranasal administration using ABC (Thermo Fisher Scientific, NY) and TSA (PerkinElmer, MA) kits. For the analysis on the effect of treatment, Lei-Dab7 was administered daily throughout the reversal learning test phase of the water T-maze test. Physiological monitoring was recorded at 30 minutes and 24 hours post administration by using PhysioSuite (Kent Scientific, CT).
Supplementary Figure 4. […] Pulse oximetry, heart rate, and body temperature were recorded at 30 minutes and 24 hours post administration of vehicle control (30 minutes only) or Lei-Dab7 (30 minutes, 24 hours). Siblings from the same mother were used as the control for the Lei-Dab7 treatment. […] Data are presented in box plots. The line within the box indicates the median, and the upper and lower edges of the box represent the 25th and 75th percentiles, respectively. The upper and lower whisker boundaries indicate the 10th and 90th percentiles, respectively, and dots indicate outliers.

The mark [2] stands for this setting: P40, 30 minutes and 24 hours post administration, one-way ANOVA, n = 6 animals from 3 litters per group.

Entries after “also recorded” stand apart in the source; their conditions may differ. Positions of bridges follow the written chain, without caps; N, C: chain ends. Non-standard residues stand in square brackets, D forms with d. Residues, ends and D or L forms follow the SMILES beside them. Dab = NCC[C@H](N)C(=O)O

Chain of human KCNN2 (Q9H2S1 whole entry): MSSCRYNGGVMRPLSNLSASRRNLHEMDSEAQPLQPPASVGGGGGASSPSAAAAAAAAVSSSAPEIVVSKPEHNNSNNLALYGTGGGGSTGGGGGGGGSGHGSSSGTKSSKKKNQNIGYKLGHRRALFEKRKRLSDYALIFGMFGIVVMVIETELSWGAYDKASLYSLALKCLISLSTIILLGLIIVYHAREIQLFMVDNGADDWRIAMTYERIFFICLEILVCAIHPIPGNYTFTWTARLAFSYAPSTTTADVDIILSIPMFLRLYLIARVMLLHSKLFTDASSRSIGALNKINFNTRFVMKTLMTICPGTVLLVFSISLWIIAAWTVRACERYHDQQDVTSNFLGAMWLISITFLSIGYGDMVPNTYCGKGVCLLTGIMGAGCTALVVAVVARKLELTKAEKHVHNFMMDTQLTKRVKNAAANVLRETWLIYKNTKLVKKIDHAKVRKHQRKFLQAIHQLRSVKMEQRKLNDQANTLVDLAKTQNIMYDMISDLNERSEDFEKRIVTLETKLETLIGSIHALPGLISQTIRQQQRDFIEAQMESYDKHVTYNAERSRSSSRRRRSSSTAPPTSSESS

`CC[C@H](C)[C@@H]1NC(=O)[C@@H]2CSSC[C@H](NC(=O)[C@H](Cc3ccccc3)NC(=O)[C@H](C)N)C(=O)N[C@@H](CC(N)=O)C(=O)N[C@@H](CC(C)C)C(=O)N[C@@H](CCCNC(=N)N)C(=O)N[C@@H](CCN)C(=O)N[C@H]3CSSC[C@H](NC(=O)[C@H](CCCCN)NC(=O)[C@H](CC(=O)O)NC(=O)CNC1=O)C(=O)N[C@@H](CCC(=O)O)C(=O)N[C@H](C(=O)N[C@H](C(=O)N[C@@H](CCCCN)C(=O)N[C@@H](Cc1c[nH]cn1)C(N)=O)C(C)C)CSSC[C@H](NC(=O)[C@H](CO)NC(=O)[C@H](CC(C)C)NC(=O)[C@H](CCC(N)=O)NC3=O)C(=O)N[C@@H](CCCNC(=N)N)C(=O)N[C@@H](CO)C(=O)N[C@@H](CC(C)C)C(=O)NCC(=O)N[C@@H](CC(C)C)C(=O)N[C@@H](CC(C)C)C(=O)NCC(=O)N[C@@H](CCCCN)C(=O)N2` [Lei-Dab7, Leiurotoxin-1 Dab7] (H-AFCNLR[Dab]CQLSCRSLGLLGKCIGDKCECVKH-NH2; disulfide 3-21, 8-26, 12-28) displayed an IC50 against human KCNN2 (HEK293 stably expressing human KCNN2, thallium flux, FLIPR Potassium Assay Kit, FLIPR TETRA, 4 concentrations, n = 4, 0% = 1 μM A23187, 100% = 3 μM UCL1684) of 720 nM. Also, the “IC50 of Lei-Dab7 relative to tamapin (times higher)” value on human KCNN2 (ratio of IC50 Lei-Dab7 to IC50 tamapin, human KCNN2 in HEK293) is over 10 times. For the same molecule, in series [1] (3.0 μg/kg intranasal, pulse oximetry, heart rate, body temperature, 30 minutes or 24 hours post administration), the “toxicity, 3 primary physiological measures” value is on record as “without apparent acute physiological adverse effects; also recorded: No severe toxicity”. In addition, in series [1] (setting [2]), the “body temperature vs vehicle” value is “no statistically significant differences”, the “heart rate vs vehicle” value was “no statistically significant differences” and the “pulse oximetry vs vehicle” value is “no statistically significant differences”. In addition, the “adverse effects in control animals” value in series [1] (intranasal, control animals (Figs. 5, S4)) is “no apparent adverse effects in control animals”.

The values above are taken from paper PMC12418948, “Intranasal Administration of KCNN2 Blocking Peptide Improves Deficits in Cognitive Flexibility in Mouse Model of Fetal Alcohol Spectrum Disorders” (International Journal of Neuropsychopharmacology, 2025).
